This is an account of results in publication PMC2551328 (Biochemistry, 2008).

One test addresses T1, M.tb PGDH (Mycobacterium tuberculosis, UniProt P9WNX3).
T1 sequence (P9WNX3 1-528): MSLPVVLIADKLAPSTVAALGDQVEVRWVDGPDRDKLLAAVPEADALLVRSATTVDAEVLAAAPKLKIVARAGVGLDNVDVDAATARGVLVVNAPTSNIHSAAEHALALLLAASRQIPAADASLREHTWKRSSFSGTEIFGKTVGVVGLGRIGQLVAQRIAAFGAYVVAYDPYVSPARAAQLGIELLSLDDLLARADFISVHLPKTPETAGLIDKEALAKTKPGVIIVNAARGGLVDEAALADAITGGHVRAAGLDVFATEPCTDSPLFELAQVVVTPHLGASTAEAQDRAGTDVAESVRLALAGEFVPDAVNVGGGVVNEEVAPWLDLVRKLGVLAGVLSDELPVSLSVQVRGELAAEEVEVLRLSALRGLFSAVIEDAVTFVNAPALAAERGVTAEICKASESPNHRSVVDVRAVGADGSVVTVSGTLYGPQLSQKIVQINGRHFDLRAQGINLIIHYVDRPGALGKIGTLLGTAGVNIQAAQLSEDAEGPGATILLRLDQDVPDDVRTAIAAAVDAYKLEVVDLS
It is filed as binding.

The next test concerns the target Human PGDH (Homo sapiens, UniProt O43175). The test can be described thus: Serine effect on human PGDH. Format: biochemical. Conditions: unpublished result.
The test system of test [1] is E. coli PGDH. Conditions: read-out: IC50 for L-serine; cited from earlier work.
In a further test the test system is PGDH from C. glutamicum. The settings on record: read-out: IC50 (serine); cited from earlier work.
A further test has as its system chicken liver PGDH. The settings on record: cited from earlier work.
The next test has as its system rat liver PGDH. Conditions: cited from earlier work.
For test [2], the target named is T2, M.tb PGDH (Native) (Mycobacterium tuberculosis, UniProt P9WNX3).
T2 sequence (P9WNX3 1-528): T1 sequence (P9WNX3 1-528)
It is filed as biochemical.

Another test deals with PGDH from B. subtilis. The settings on record: read-out: IC50 (serine); cited from earlier work.
For test [3], the system named is E. coli PGDH. The settings on record: read-out: Kd (NADH), without cooperativity; cited from earlier work.
Test [4] deals with T2, M.tb PGDH (Native). Conditions: read-out: Km (NADH), homotropic positive cooperativity; cited from earlier work.

The structures appear in SMILES notation. Several values for one entry are separate records, joined by “and”; a condition that tells them apart may be missing. Identical values can stand only once. Like-named read-outs stand apart in the source and are kept apart here.

Human PGDH, sequence (O43175 whole entry): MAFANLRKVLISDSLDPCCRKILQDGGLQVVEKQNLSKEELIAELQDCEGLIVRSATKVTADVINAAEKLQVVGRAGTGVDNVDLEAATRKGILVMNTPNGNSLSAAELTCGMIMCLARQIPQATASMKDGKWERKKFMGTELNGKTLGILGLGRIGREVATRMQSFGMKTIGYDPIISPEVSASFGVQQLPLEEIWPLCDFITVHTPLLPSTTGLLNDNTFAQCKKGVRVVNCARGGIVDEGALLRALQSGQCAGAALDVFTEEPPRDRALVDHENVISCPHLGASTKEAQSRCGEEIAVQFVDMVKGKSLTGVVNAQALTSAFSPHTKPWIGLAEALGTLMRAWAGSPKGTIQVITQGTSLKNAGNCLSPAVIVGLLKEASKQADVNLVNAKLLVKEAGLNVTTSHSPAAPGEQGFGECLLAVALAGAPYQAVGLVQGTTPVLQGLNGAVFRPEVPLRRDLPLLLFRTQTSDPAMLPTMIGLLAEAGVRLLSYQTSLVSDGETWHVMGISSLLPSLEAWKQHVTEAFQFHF

`O=C(O)C(O)COP(=O)(O)O` [phosphoglyceric acid, D-3-phosphoglyceric acid]: the “effect on the rate of NADH binding” value at M.tb PGDH is listed as “did not significantly enhance”.

For `N[C@@H](CO)C(=O)O` [L-serine, reference compound], the “effect of serine on enzyme activity” value on Human PGDH is listed as “not inhibited”; at Human PGDH (listed as serine), “not affected”; with chicken liver PGDH, “no effect”; in the test on rat liver PGDH it was “no effect”. Moreover, the 50% inhibitory concentration (IC50) with E. coli PGDH [1] was […]; with PGDH from C. glutamicum it was […]; in the test with PGDH from B. subtilis it was approximately 600 µM. For the same compound, the “Hill Coefficient” value at M.tb PGDH (Native) [2] is […].

As to `O=C(O)C(=O)COP(=O)(O)O` [HPAP, hydroxypyruvic acid phosphate], on M.tb PGDH (Native) [2], the affinity corresponds to a Ki of 950 ± 120 µM and the kcat was determined as 2461 ± 281 s⁻¹. Besides, the Michaelis-Menten constant (Km) at M.tb PGDH (Native) [2] (pH 7.5) turned out to be 170 ± 50 µM. Moreover, the “HPAP binding transient (enzyme fluorescence increase)” value on M.tb PGDH is reported as “rapid binding”.

In the case of `NC(=O)C1=CN([C@@H]2O[C@H](COP(=O)(O)OP(=O)(O)OC[C@H]3O[C@@H](n4cnc5c(N)ncnc54)[C@H](O)[C@@H]3O)[C@@H](O)[C@H]2O)C=CC1` [NADH], in the test with E. coli PGDH [3], the Kd was less than 0.5 µM. Moreover, the Km at M.tb PGDH (Native) [4] was approximately 50 µM. At M.tb PGDH, the “NADH concentration needed to produce a rate equal to the kcat” value is “at least 65 mM”, the “on-rate for NADH binding” value was “occurs within the dead-time of the instrument” and the “on-rates for NADH binding” value is “zero”. Moreover, the “off-rate of NADH binding” value at M.tb PGDH (pH 7.5) is 0.34 sec ^−1 and 0.21 sec ^−1. In addition, the equilibrium dissociation constant (Kd) at M.tb PGDH (read-out: Kd for NADH binding) fell in the range of 15 to 30 µM.

The IC50 is the concentration that inhibits the measured activity by half. For orientation: Ki means a measure of affinity in units of concentration, obtained from inhibition or displacement. A higher Ki goes with weaker binding. The term kcat denotes the number of substrate molecules converted per active site and unit of time at saturation. Usually Km stands for the concentration of substrate that gives half-maximal velocity. As usually defined, the Kd is the free concentration of one partner at which half of the binding sites on the other are occupied at equilibrium, for simple one-to-one binding.
